{"source": "ChEMBL document CHEMBL5104164", "about": "“Design, synthesis, and biological evaluation of pyrrolopyrimidine derivatives as novel Bruton's tyrosine kinase (BTK) inhibitors” (Eur J Med Chem, 2022)", "key": {"[1]": {"test": "Cmax in male BALB/c mouse at 2 mg/kg, iv", "type": "ADME, organism-based", "set-up": "dose 2 mg/kg, route iv", "details": "in vivo"}, "[2]": {"test": "Half-life in male BALB/c mouse at 2 mg/kg, iv", "type": "ADME, organism-based", "details": "in vivo"}, "[3]": {"test": "Apparent volume of distribution in male BALB/c mouse at 2 mg/kg, iv", "type": "ADME, organism-based", "details": "in vivo, read-out: Vz"}, "[4]": {"test": "Tmax in male BALB/c mouse at 10 mg/kg, po", "type": "ADME, organism-based", "details": "in vivo"}, "[5]": {"target": "Tyrosine-protein kinase BTK (Homo sapiens, UniProt Q06187)", "sequence (Q06187 whole entry)": "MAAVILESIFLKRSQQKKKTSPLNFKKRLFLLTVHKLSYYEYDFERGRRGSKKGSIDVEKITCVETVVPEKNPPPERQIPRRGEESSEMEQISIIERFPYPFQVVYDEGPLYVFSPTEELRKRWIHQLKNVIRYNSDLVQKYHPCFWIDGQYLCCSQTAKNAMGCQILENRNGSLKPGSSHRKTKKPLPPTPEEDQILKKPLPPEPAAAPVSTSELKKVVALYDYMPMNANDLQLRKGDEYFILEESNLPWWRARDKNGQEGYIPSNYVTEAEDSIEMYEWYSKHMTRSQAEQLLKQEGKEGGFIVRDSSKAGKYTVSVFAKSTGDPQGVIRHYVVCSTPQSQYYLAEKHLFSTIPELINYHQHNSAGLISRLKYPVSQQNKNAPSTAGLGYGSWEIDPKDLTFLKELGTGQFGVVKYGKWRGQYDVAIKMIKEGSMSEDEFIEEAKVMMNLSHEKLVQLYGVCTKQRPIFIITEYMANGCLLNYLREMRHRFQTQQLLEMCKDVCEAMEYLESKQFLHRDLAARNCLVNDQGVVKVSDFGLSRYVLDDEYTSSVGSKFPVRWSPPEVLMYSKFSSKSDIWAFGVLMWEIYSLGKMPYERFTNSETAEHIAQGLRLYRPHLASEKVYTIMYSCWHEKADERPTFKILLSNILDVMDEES", "test": "Inhibition of BTK (unknown origin) assessed as residual percent of control at 1 uM measured by DiscoverX kinome scan assay relative to control"}, "Pfeiffer": {"test_system": "Pfeiffer", "test": "Antiproliferative activity against human Pfeiffer cells incubated for 72 hrs by CellTiter-Glo assay", "type": "functional, cell-based"}, "OCI-Ly3": {"test_system": "OCI-Ly3", "test": "Antiproliferative activity against human OCILY3 cells incubated for 72 hrs by CellTiter-Glo assay", "type": "functional, cell-based", "details": "OCI-Ly3, 72 h"}, "SU-DHL-6": {"test_system": "SU-DHL-6", "test": "Antiproliferative activity against human SU-DHL-6 cells incubated for 72 hrs by CellTiter-Glo assay", "type": "functional, cell-based", "details": "SU-DHL-6, 72 h"}, "[6]": {"test": "Antiproliferative activity against human MINO cells incubated for 72 hrs by CellTiter-Glo assay", "type": "functional, cell-based"}, "Ramos": {"test_system": "Ramos", "test": "Antiproliferative activity against human Ramos cells incubated for 72 hrs by CellTiter-Glo assay", "type": "functional, cell-based"}, "TMD8 [7]": {"test_system": "TMD8", "test": "Cell cycle arrest in human TMD8 cells assessed as accumulation of cells at G2 phase at 1 nM after 48 hrs by propidium iodide staining based flow cytometric analysis (reference value: 13.4%)", "type": "functional"}, "TMD8 [8]": {"test_system": "TMD8", "test": "Cell cycle arrest in human TMD8 cells assessed as accumulation of cells at G0/G1 phase at 10 nM after 48 hrs by propidium iodide staining based flow cytometric analysis (reference value: 32.9%)", "type": "functional"}, "TMD8 [9]": {"test_system": "TMD8", "test": "Cell cycle arrest in human TMD8 cells assessed as accumulation of cells at S phase at 10 nM after 48 hrs by propidium iodide staining based flow cytometric analysis (reference value: 49.3%)", "type": "functional"}, "TMD8 [10]": {"test_system": "TMD8", "test": "Cell cycle arrest in human TMD8 cells assessed as accumulation of cells at G2 phase at 10 nM after 48 hrs by propidium iodide staining based flow cytometric analysis (reference value: 13.4%)", "type": "functional"}, "TMD8 [11]": {"test_system": "TMD8", "test": "Induction of apoptosis in human TMD8 cells assessed as apoptotic cells 10 nM incubated for 72 hrs by AnnexinV-FITC/propidium iodide staining based flow cytometric analysis", "type": "functional"}, "TMD8 [12]": {"test_system": "TMD8", "test": "Induction of apoptosis in human TMD8 cells assessed as apoptotic cells 1000 nM incubated for 72 hrs by AnnexinV-FITC/propidium iodide staining based flow cytometric analysis", "type": "functional"}, "[13]": {"target": "Voltage-gated inwardly rectifying potassium channel KCNH2 (Homo sapiens, UniProt Q12809)", "sequence (Q12809 whole entry)": "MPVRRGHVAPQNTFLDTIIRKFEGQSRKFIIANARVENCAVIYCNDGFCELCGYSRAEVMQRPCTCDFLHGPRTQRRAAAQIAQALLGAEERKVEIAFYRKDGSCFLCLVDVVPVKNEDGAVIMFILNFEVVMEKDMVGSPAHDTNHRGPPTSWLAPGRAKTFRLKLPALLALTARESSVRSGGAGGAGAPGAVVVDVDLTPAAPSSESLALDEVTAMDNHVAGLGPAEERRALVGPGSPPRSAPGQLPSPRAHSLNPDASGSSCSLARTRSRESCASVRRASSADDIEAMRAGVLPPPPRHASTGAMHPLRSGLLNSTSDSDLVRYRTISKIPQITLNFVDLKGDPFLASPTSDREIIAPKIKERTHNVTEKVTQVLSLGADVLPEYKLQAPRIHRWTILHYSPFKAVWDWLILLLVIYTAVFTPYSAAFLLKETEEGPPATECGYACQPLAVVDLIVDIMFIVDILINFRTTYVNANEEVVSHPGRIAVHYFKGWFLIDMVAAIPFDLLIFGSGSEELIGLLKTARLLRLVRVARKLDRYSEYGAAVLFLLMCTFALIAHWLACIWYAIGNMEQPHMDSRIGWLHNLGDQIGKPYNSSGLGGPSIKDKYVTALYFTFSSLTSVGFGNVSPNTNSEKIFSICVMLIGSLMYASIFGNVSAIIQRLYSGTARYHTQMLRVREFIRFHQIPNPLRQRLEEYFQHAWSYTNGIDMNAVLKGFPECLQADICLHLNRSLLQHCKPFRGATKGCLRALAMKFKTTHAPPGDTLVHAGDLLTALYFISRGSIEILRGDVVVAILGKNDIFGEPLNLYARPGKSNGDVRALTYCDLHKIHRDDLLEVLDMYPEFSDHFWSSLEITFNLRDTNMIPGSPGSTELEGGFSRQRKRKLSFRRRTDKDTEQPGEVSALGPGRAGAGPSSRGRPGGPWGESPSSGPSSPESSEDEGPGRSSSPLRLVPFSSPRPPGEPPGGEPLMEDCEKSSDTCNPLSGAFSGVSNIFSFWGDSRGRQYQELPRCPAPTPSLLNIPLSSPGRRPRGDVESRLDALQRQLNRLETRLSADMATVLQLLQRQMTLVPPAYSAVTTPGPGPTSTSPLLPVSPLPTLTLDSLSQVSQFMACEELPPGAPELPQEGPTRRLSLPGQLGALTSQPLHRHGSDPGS", "test": "Inhibition of hERG", "type": "toxicity"}, "[14]": {"test": "Mutagenicity in Salmonella typhimurium TA100 at 1.5 to 1000 ug per plate by AMES test", "type": "toxicity, Salmonella enterica subsp. enterica serovar Typhimurium", "details": "dose 1.5-1000 µg"}, "[15]": {"test": "Mutagenicity in Salmonella typhimurium TA1535 at 1.5 to 1000 ug per plate by AMES test", "type": "toxicity, Salmonella enterica subsp. enterica serovar Typhimurium", "details": "dose 1.5-1000 µg"}, "TMD8 [16]": {"test_system": "TMD8", "test": "Antitumor activity against human TMD8 cells xenografted in female CB-17 SCID nude mouse assessed as tumor suppression at 12.5 to 25 mg/kg, po administered twice daily for 21 days", "type": "functional, organism-based", "details": "dose 12.5-25 mg/kg, time 21.0 day"}, "TMD8 [17]": {"test_system": "TMD8", "test": "Antitumor activity against human TMD8 cells xenografted in female CB-17 SCID nude mouse assessed as tumor growth inhibition at 50 mg/kg, po administered twice daily for 21 days", "type": "functional", "details": "TMD8, 504 h, time 21 day, read-out: TGI"}, "[18]": {"test": "Toxicity in female CB-17 SCID nude mouse xenografted with human TMD8 cells assessed as effect on body weight at 12.5 to 50 mg/kg, po administered twice daily for 21 days", "type": "organism-based", "details": "in vivo, 504 h, dose 12.5-50 mg/kg, time 21 day"}, "[19]": {"test": "Toxicity in female CB-17 SCID nude mouse xenografted with human TMD8 cells assessed as reduction in lymphocytes at 50 mg/kg, po administered twice daily for 21 days", "type": "organism-based", "details": "in vivo, 504 h, time 21 day"}, "[20]": {"test": "Toxicity in female CB-17 SCID nude mouse xenografted with human TMD8 cells assessed as reduction in monocytes at 50 mg/kg, po administered twice daily for 21 days", "type": "organism-based", "details": "in vivo, 504 h, time 21 day"}, "[21]": {"test": "Toxicity in female CB-17 SCID nude mouse xenografted with human TMD8 cells assessed as effect on red blood cells at 50 mg/kg, po administered twice daily for 21 days", "type": "organism-based", "details": "in vivo, 504 h, time 21 day"}, "[22]": {"test": "Toxicity in female CB-17 SCID nude mouse xenografted with human TMD8 cells assessed as effect on platelets at 50 mg/kg, po administered twice daily for 21 days", "type": "organism-based", "details": "in vivo, 504 h, time 21 day"}, "[23]": {"test": "Mutagenicity in Salmonella typhimurium TA98 at 1.5 to 1000 ug per plate in presence of liver microsomes by AMES test", "type": "toxicity, Salmonella enterica subsp. enterica serovar Typhimurium", "details": "dose 1.5-1000 µg"}, "[24]": {"test": "Mutagenicity in Salmonella typhimurium TA100 at 1.5 to 1000 ug per plate in presence of liver microsomes by AMES test", "type": "toxicity, Salmonella enterica subsp. enterica serovar Typhimurium", "details": "dose 1.5-1000 µg"}, "[25]": {"test": "Mutagenicity in Salmonella typhimurium TA1535 at 1.5 to 1000 ug per plate in presence of liver microsomes by AMES test", "type": "toxicity, Salmonella enterica subsp. enterica serovar Typhimurium", "details": "dose 1.5-1000 µg"}}, "note": "pIC50: −log10 of the molar value. The source made the active and inactive calls. The calls are words filed in the database; no cut-off is given here."}
{"smiles": "C=CC(=O)N1CC=C(c2c[nH]c3ncnc(-c4ccc(CNC(=O)c5ccccc5)c(F)c4)c23)CC1", "values": [{"measurement": "Cmax", "setting": "[1]", "result": 2250, "unit": "ng/mL"}, {"measurement": "half-life", "setting": "[2]", "result": 40.2, "unit": "min"}, {"measurement": "Vd", "setting": "[3]", "result": 2.79, "unit": "L/kg"}, {"measurement": "Tmax", "setting": "[4]", "result": 23.4, "unit": "min"}, {"measurement": "Activity", "setting": "[5]", "result": 0.05, "unit": "%"}, {"measurement": "pIC50", "setting": "Pfeiffer", "result": "< 5.00"}, {"measurement": "pIC50", "setting": "OCI-Ly3", "result": "< 5.00"}, {"measurement": "pIC50", "setting": "SU-DHL-6", "result": "< 5.00"}, {"measurement": "pIC50", "setting": "[6]", "result": "< 5.00"}, {"measurement": "pIC50", "setting": "Ramos", "result": "< 5.00"}, {"measurement": "Activity", "setting": "TMD8 [7]", "result": 11.8, "unit": "%"}, {"measurement": "Activity", "setting": "TMD8 [8]", "result": 59.2, "unit": "%"}, {"measurement": "Activity", "setting": "TMD8 [9]", "result": 26.4, "unit": "%"}, {"measurement": "Activity", "setting": "TMD8 [10]", "result": 8.7, "unit": "%"}, {"measurement": "Activity", "setting": "TMD8 [11]", "result": 19, "unit": "%"}, {"measurement": "Activity", "setting": "TMD8 [12]", "result": 31.4, "unit": "%"}, {"measurement": "pIC50", "setting": "[13]", "result": 5.36}, {"measurement": "Activity", "setting": "[14]", "result": "Non-Toxic"}, {"measurement": "Activity", "setting": "[15]", "result": "Non-Toxic"}, {"measurement": "Activity", "setting": "TMD8 [16]", "result": "Active"}, {"measurement": "inhibition in vivo at 50 mg/kg", "setting": "TMD8 [17]", "result": 104, "unit": "%"}, {"measurement": "Activity", "setting": "[18]", "result": "Non-Toxic"}, {"measurement": "Activity", "setting": "[19]", "result": "Toxic"}, {"measurement": "Activity", "setting": "[20]", "result": "Toxic"}, {"measurement": "Activity", "setting": "[21]", "result": "Non-Toxic"}, {"measurement": "Activity", "setting": "[22]", "result": "Non-Toxic"}, {"measurement": "Activity", "setting": "[23]", "result": "Non-Toxic"}, {"measurement": "Activity", "setting": "[24]", "result": "Non-Toxic"}, {"measurement": "Activity", "setting": "[25]", "result": "Non-Toxic"}]}
